Data published in US8906925B2, “Pyrido[4,3-B]indoles containing rigid moieties” (Medivation Technologies, Inc., priority 2008, dated 2014).

Experiments:
histamine receptor H1 = histamine receptor H1 (Homo sapiens, UniProt P35367); test: Histamine H1 radioligand binding ([3H]Pyrilamine); conditions: read-out: Histamine Binding (1 μM) H1, percent inhibition of specific binding, 1 μM
Procedure, shortened: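 Values are percent inhibition of specific [3H]pyrilamine (1.2 nM) binding with compounds at ≤1 μM (1% DMSO vehicle); 180 min incubation at 25 °C, pH 7.4 Tris buffer, on CHO-expressed human H1 receptor; 1 μM pyrilamine defined nonspecific binding, bound ligand counted after filtration.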

[1] = target: T1, human recombinant serotonin (5-Hydroxytryptamine) 5-HT6 receptor (Homo sapiens, UniProt P50406); test: Serotonin 5-HT6 radioligand binding ([3H]LSD); conditions: compound at 1 μM; read-out: Inhibition of ligand binding, Serotonin 5-HT6 (percent inhibition of specific binding)
T1 construct: expressed in transfected cells; host or cells: human HeLa cells
T1 sequence (P50406 whole entry): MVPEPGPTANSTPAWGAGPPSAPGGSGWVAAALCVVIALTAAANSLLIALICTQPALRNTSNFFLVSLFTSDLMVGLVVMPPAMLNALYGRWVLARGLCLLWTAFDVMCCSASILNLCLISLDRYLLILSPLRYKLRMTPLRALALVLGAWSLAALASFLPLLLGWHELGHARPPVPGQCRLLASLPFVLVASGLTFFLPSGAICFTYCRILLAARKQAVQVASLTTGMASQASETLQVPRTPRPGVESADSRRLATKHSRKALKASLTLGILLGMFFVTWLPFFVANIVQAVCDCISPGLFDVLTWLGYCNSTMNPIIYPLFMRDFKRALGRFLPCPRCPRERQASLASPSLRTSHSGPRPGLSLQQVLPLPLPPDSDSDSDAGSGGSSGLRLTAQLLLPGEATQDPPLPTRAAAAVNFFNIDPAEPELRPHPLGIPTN
Procedure: Compounds of the invention were incubated with 1.5 nM [3H]Lysergic acid diethylamide (LSD) for 120 min. at 37° C. […] Receptor proteins were filtered and washed, the filters were then counted to determine [3H]LSD specifically bound. Compounds were screened at 1 μM or lower, using 1% DMSO as vehicle. Biochemical assay results are presented as the percent inhibition of specific binding in Table 10.

[2] = target: human dopamine D2L receptor (Homo sapiens, UniProt P14416); test: Dopamine D2L radioligand binding ([3H]Spiperone); conditions: percent inhibition of specific binding; compound at 1 μM; read-out: Inhibition of ligand binding, Dopamine D2L
human dopamine D2L receptor, sequence (P14416 whole entry): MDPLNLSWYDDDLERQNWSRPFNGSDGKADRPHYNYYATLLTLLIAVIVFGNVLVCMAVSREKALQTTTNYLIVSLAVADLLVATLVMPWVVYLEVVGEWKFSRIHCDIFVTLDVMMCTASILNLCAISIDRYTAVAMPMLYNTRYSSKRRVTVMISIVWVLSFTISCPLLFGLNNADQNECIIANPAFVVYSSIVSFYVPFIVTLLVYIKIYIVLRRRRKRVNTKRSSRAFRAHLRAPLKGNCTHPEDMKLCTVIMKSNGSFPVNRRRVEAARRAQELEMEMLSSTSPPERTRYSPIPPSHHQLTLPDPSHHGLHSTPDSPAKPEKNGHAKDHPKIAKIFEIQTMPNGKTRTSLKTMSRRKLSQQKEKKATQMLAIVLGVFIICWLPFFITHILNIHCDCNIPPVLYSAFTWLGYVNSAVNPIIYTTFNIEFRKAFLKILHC
From the text: Non-specific binding was estimated in the presence of […] Haloperidol. Receptor proteins were filtered and washed, the filters were then counted to determine [^3H]Spiperone specifically bound. […] Biochemical assay results are presented as the percent inhibition of specific binding in Table 9.

[3] = target: T2, human recombinant histamine H2 receptor (Homo sapiens, UniProt P25021); test: Histamine H2 radioligand binding ([125I]Aminopotentidine); conditions: read-out: Histamine Binding (1 μM) H2, percent inhibition of specific binding, 1 μM
T2 construct: expressed in transfected cells; host or cells: Chinese hamster ovary (CHO) K1 cells
T2 sequence (P25021 whole entry): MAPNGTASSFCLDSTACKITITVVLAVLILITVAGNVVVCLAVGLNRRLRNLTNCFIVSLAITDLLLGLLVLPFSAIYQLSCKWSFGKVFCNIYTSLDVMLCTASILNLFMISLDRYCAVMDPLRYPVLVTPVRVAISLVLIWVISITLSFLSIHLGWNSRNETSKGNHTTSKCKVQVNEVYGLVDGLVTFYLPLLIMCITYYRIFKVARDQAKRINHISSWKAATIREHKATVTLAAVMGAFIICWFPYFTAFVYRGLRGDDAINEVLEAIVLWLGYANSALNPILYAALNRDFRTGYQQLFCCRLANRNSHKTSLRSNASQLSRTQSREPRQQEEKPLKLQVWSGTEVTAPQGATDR
Procedure, shortened: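 Receptor source: human recombinant H2 in CHO-K1 cells, assayed in 50 mM phosphate pH 7.4. Competition against 0.1 nM [125I]aminopotentidine, 120 min, 25 °C; 3 μM tiotidine sets nonspecific binding, filter-bound counts give specific binding.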

[4] = target: T3, human recombinant serotonin (5-Hydroxytryptamine) 5-HT2C receptor (Homo sapiens, UniProt P28335); test: Serotonin 5-HT2C radioligand binding ([3H]Mesulergine); conditions: compound at 1 μM; read-out: Inhibition of ligand binding, Serotonin 5-HT2C (percent inhibition of specific binding)
T3 construct: expressed in transfected cells; host or cells: Chinese hamster ovary (CHO-K1) cells
T3 sequence (P28335 33-458): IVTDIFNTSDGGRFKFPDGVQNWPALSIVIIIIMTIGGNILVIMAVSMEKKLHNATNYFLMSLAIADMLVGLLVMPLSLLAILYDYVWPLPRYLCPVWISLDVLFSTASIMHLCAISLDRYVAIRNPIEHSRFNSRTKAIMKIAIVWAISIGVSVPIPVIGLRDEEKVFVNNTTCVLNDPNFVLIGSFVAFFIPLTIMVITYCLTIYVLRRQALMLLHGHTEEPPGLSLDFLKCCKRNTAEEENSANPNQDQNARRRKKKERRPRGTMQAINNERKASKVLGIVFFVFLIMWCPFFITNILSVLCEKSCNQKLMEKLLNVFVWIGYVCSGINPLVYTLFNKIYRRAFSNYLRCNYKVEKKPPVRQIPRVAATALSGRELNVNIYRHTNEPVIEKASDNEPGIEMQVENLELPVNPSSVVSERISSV
Procedure, shortened: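 Compounds tested at 1 μM or lower (1% DMSO vehicle) for displacement of 1 nM [3H]Mesulergine over 60 min at 25° C. Specific binding determined by filtration counting, with 1 μM Mianserin defining non-specific binding; values are percent inhibition.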

[5] = target: T4, human recombinant serotonin (5-Hydroxytryptamine) 5-HT2A receptor (Homo sapiens, UniProt P28223); test: Serotonin 5-HT2A radioligand binding ([3H]Ketanserin); conditions: read-out: Inhibition of ligand binding, Serotonin 5-HT2A (percent inhibition of specific binding), compound at 1 μM
T4 construct: expressed in transfected cells; host or cells: Chinese hamster ovary (CHO-K1) cells
T4 sequence (P28223 whole entry): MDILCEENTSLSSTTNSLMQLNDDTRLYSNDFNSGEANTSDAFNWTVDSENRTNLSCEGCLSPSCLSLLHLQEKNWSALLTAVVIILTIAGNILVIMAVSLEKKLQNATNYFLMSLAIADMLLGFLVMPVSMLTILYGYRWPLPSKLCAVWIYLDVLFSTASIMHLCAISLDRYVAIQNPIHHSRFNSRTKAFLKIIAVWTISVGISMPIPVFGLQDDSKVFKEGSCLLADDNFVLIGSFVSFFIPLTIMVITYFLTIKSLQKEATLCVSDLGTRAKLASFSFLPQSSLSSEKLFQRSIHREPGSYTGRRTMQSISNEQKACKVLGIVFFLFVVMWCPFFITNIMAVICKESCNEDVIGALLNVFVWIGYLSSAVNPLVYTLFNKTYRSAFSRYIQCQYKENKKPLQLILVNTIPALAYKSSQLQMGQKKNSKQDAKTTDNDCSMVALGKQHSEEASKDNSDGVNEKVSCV
Procedure: Compounds of the invention were incubated with 0.5 nM [^3H]Ketanserin for 60 min. at 25° C. Non-specific binding was estimated in the presence of 1 μM Mianserin. Receptor proteins were filtered and washed, the filters were then counted to determine [^3H]Ketanserin specifically bound.

[6] = target: human recombinant serotonin (5-Hydroxytryptamine) 5-HT7 receptor (Homo sapiens, UniProt P34969); test: Serotonin 5-HT7 radioligand binding ([3H]LSD); conditions: compound at 1 μM; read-out: Inhibition of ligand binding, Serotonin 5-HT7 (percent inhibition of specific binding)
human recombinant serotonin (5-Hydroxytryptamine) 5-HT7 receptor, sequence (P34969 whole entry): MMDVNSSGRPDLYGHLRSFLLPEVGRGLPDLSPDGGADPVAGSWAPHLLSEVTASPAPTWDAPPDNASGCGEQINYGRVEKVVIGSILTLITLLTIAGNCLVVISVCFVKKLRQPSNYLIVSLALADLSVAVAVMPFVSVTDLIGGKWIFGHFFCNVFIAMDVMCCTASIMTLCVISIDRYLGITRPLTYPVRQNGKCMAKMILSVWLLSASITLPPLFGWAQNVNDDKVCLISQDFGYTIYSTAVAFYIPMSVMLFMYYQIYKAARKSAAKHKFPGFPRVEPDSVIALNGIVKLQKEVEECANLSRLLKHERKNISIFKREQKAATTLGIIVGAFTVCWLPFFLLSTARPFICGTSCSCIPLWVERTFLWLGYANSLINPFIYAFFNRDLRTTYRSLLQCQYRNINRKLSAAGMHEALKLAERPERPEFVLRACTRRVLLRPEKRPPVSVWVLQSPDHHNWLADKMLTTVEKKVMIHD
From the text: Receptor proteins were filtered and washed, the filters were then counted to determine [^3H]LSD specifically bound.

histamine receptor H1, sequence (P35367 whole entry): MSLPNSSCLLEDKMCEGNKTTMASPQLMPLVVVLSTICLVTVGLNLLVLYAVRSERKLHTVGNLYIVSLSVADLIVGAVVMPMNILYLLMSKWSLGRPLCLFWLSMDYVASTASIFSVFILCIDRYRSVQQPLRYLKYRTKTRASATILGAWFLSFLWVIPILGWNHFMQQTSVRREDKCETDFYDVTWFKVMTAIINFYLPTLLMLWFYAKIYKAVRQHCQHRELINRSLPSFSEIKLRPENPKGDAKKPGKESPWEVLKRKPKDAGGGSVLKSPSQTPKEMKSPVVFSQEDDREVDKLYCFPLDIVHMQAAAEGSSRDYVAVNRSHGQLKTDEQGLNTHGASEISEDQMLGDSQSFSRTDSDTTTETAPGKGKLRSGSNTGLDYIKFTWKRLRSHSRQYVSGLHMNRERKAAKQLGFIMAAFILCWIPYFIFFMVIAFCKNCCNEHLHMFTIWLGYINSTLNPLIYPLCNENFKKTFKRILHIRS

Structure (SMILES)	inhibition at 1 µM (histamine receptor H1) [%]	inhibition at 1 µM [1] [%]	inhibition at 1 µM [2] [%]	inhibition at 1 µM [3] [%]	inhibition at 1 µM [4] [%]	inhibition at 1 µM [5] [%]	inhibition at 1 µM [6] [%]
C/C(=C/n1c2c(c3cc(Cl)ccc31)CN(C)CC2)c1cc(F)c(F)cc1Cl [Compound 240, (Z)-8-chloro-5-(2-(2-chloro-4,5-difluorophenyl)prop-1-enyl)-2-methyl-2,3,4,5-tetrahydro-1H-pyrido[4,3-b]indole]	95	104	34	99	99	99	99
C/C(=C\n1c2c(c3cc(Cl)ccc31)CN(C)CC2)c1cc(F)c(F)cc1Cl [Compound 241, (E)-8-chloro-5-(2-(2-chloro-4,5-difluorophenyl)prop-1-enyl)-2-methyl-2,3,4,5-tetrahydro-1H-pyrido[4,3-b]indole]	89	101	47	98	100	93	96
C/C(=C/n1c2c(c3cc(C)ccc31)CN(C)CC2)c1ccccc1Cl [Compound 242, (Z)-5-(2-(2-chlorophenyl)prop-1-enyl)-2,8-dimethyl-2,3,4,5-tetrahydro-1H-pyrido[4,3-b]indole]	88	107	55	97	99	98	100
C/C(=C\n1c2c(c3cc(Cl)c(Cl)cc31)CN(C)CC2)c1ccncc1 [Compound 243, (E)-7,8-dichloro-2-methyl-5-(2-(pyridin-4-yl)prop-1-enyl)-2,3,4,5-tetrahydro-1H-pyrido[4,3-b]indole]	95	107	96	90	99	100	97
C/C(=C/n1c2c(c3cc(Cl)c(Cl)cc31)CN(C)CC2)c1ccncc1 [Compound 244, (Z)-7,8-dichloro-2-methyl-5-(2-(pyridin-4-yl)prop-1-enyl)-2,3,4,5-tetrahydro-1H-pyrido[4,3-b]indole]	87	106	86	88	99	103	99
C/C(=C\n1c2c(c3c(Cl)c(Cl)ccc31)CN(C)CC2)c1ccncc1 [Compound 245, (E)-8,9-dichloro-2-methyl-5-(2-(pyridin-4-yl)prop-1-enyl)-2,3,4,5-tetrahydro-1H-pyrido[4,3-b]indole]	60	103	92	71	96	102	74
COc1ccc2c(c1)c1c(n2/C=C(\C)c2ccncc2)CCN(C)C1 [Compound 246, (E)-8-methoxy-2-methyl-5-(2-(pyridin-4-yl)prop-1-enyl)-2,3,4,5-tetrahydro-1H-pyrido[4,3-b]indole]	7	104	57	29	94	97	88
C/C(=C/n1c2c(c3cc(C)ccc31)CN(C)CC2)c1ccc(Cl)c(Cl)c1 [Compound 247, (Z)-5-(2-(3,4-dichlorophenyl)prop-1-enyl)-2,8-dimethyl-2,3,4,5-tetrahydro-1H-pyrido[4,3-b]indole]	75	103	28	99	100	101	101
